Here are results for one molecule from patent US5668134A, “Method for preventing or reducing photosensitivity and/or phototoxicity reactions to medications” (priority 1994, dated 1997).

Where a name gives a salt, the structure may show the parent alone.

One data set is described as follows: Serum protein binding. Format: in vitro ADME.
A further data set relates to Citrobacter diversus. Description: Activity in vitro and in clinical infections. Format: cell-based.
The next data set concerns Enterobacter cloacae. Description: Activity in vitro and in clinical infections. The class given is cell-based.
For the next data set, the system named is Escherichia coli. Description: Activity in vitro and in clinical infections. Format: cell-based.
For data set [1], the system named is Moraxella (Branhamella) catarrhalis. Description: Activity in vitro and in clinical infections. The class given is cell-based.
The nature of data set [2]: Example 1: general pharmacokinetics in volunteers. Format: in vivo, human. On the procedure: In 6 fasting healthy male volunteers, approximately 95% to 98% of a single oral dose of lomefloxacin HCl was absorbed. […] Mean plasma concentration increased proportionally between 100 and 400 mg as shown below.
In 6 healthy male volunteers administered 400 mg of lomefloxacin HCl on an empty stomach q.d. for 7 days, the following mean pharmacokinetic parameter values were obtained: [formula]
The elimination half-life in 8 subjects with normal renal function was approximately 8 hours. At 24 hours post dose, subjects with normal renal function receiving single doses of 200 or 400 mg lomefloxacin HCl had mean plasma lomefloxacin HCl concentrations of 0.10 and 0.24 μg/ml, respectively. Steady-state concentrations were achieved within 48 hours of initiating therapy with once-a-day dosing.
Approximately 65% of an orally administered dose of lomefloxacin HCl was excreted in the urine as unchanged drug in patients with normal renal function. Following a 400 mg dose of lomefloxacin HCl administered q.d. for 7 days, the mean urine concentration was in excess of 300 μg/ml 4 hours post dose. The mean urine concentration exceeded 35 μg/ml for at least 24 hours after dosing.
The urinary excretion of lomefloxacin HCl was virtually complete within 72 hours after cessation of dosing, with approximately 65% of the dose being recovered as parent drug and 9% as its glucuronide metabolite.

The nature of data set [3]: Food effect on pharmacokinetics. Format: in vivo, human.
The nature of data set [4]: Pharmacokinetics in patients with cirrhosis. The class given is in vivo, human. The conditions noted are these: 12 patients with cirrhosis, 400 mg single dose.
For the next data set, the system named is patients. Description: Example 3: multicenter comparative safety and efficacy study, photosensitivity. The class given is in vivo, human. The conditions noted are these: 400 mg x 7 days. How it is done:
A double blind, randomized, parallel group, three-arm clinical study concerning the photosensitivity reactions caused by lomefloxacin HCl was the multicenter comparative safety and efficacy study which was conducted in Sweden. 400 mg of lomefloxacin HCl was given once a day (q.d.) for either three days or seven days. 703 patients were enrolled in this study, before newly-raised awareness of photosensitivity reactions associated with lomefloxacin HCl.
However, about one year into the study, on Feb. 2, 1989, a letter was sent out to each of the study investigators regarding the possible risks of lomefloxacin HCl photosensitivity reactions. This information was again communicated to the study investigators at an Investigator's Meeting which was held on Jun. 8, 1989. The above-describedwarnings to study investigators apparently may have not been shared with the patients taking part in the study because photosensitivity rates for this study were reported as for […] as 10% for lomefloxacin HCl 400 mg×7 days.

The conditions of data set [5]: in vivo.
A further data set has as its system skin. The conditions noted are these: humans and animals; cited from earlier work.

Molecule `CCn1cc(C(=O)O)c(=O)c2cc(F)c(N3CCNC(C)C3)c(F)c21` (racemic) [lomefloxacin HCl, monohydrochloride salt of (±)-1-ethyl-6,8-difluoro-1,4-dihydro-7-(3-methyl-1-piperazinyl)-4-oxo-3-quinolinecarboxylic acid] gave a fraction unbound in the data set “Serum protein binding” of roughly 0.9. Besides, in the data set on Citrobacter diversus, the “activity against most strains” value is recorded as “active against most strains”. Also, the “activity against most strains” value in the data set with Enterobacter cloacae is reported as “active against most strains”. For the same molecule, the “activity against most strains” value in the data set with Escherichia coli is reported as “active against most strains”. In addition, in [1], the “activity against most strains” value is listed as “active against most strains”. Moreover, in data set [2] (human, in vivo), the “glucuronide metabolite recovered in urine” value stood at 9%, the “time to steady-state concentrations” value is no more than 48 h and the “time to virtually complete urinary excretion” value was no more than 72 h. Besides, in data set [2] (human, in vivo, po), the CL renal was determined as 145 mL/min, the Fa is 95 to 98%, the Tmax fell in the range of 0.8 to 1.4 h and the half-life was roughly 480 min. Further, in data set [2] (single daily dosing, normal renal function), the drug accumulation entry is “no drug accumulation”. In data set [3], the “decrease of Cmax with food” value is 18%, the “decrease of extent of absorption (AUC) with food” value stood at 12% and the “delay of Tmax with food” value stood at 41%. Moreover, the Tmax in [3] (human, in vivo, with food) was determined as 2 h. Also, in [4], the “changes in rate or extent of exposure (Cmax, Tmax, t1/2 or AUC)” value is “no significant changes”. Besides, in the data set with patients, the photosensitivity rate stood at 10%. Further, in [5], the “time of peak plasma concentration following dosing” value was “approximately two”. Moreover, in the data set on skin, the photoreactions of quinolones entry is on record as “dose-dependent, drug-induced, UVA required photosensitivity reaction”.

The fraction unbound is the share of the substance not bound to proteins or other matrix. A high value points to much free substance. For orientation: half-life means the time needed for the level to fall by half in the phase considered. High values mean slow loss, low ones fast loss.
